In US6756504B2, “Sphingolipids” (Yissum Research Development Company of the Hebrew …, priority 2000, dated 2004):

What was measured:
Type in all cases: cell-based, Human
[1] = tested on: Bod3-GC (glucosylceramide) synthesis in HL60 cells; experiment: Sphingolipid metabolism from Bodipy-C3-ceramide: Bod3-GC in HL60; conditions: HL60, 3 hours, 2.5 μM Bodipy-C3-ceramide; read-out: od 3-GC (IC50 for Bod3-GC reduction)
Procedure: (§1) In order to examine the effect of the different compounds on sphingolipids metabolism, different cell lines were incubated with increasing concentrations of different compounds of the invention in the presence of 2.5 μM Bodipy-C3-ceramide that was added to the culture medium as a solution in dimethylsulfoxide (not exceeding 0.1% DMSO of the final volium). After 3 hours, cells and medium were collected and centrifuged. Cells were next extracted with chloroform-methanol containing 2% acetic acid 1:1 (by volume) and the medium was shaken with an equal volume of chloroform-methanol, 1:1 (by volume). The phases were separated by centrifugation and the lower chloroform phase was collected. The solvents were evaporated and applied to thin layer chromatography silica gel plates (Whatman 4865-821) with a concentrating zone.
(§2) Plates were developed as follows: For medium: in chloroform-methanol-H2O, 75:25:4 by volume. For cells: plates were first developed with chloroform-methanol, 9:1, then dried and re-run in chloroform-methanol: H2O, 65:35:4.
(§3) Standards of Bodipy-C3-ceramide: Bodipy-C3-glucosylceramide (Bod3-GC) and Bodipy C3 sphingomyelin (Bod3-SPM) were used as markers. The fluorescence of the respective Bod3-SPM and Bod3-GC spots was quantified using a Fuji FLA-2000 scanner.

[2] = tested on: HL60 cells; experiment: Apoptosis in HL60 cells, propidium iodide flow cytometry (FACS)
Procedure: The apoptotic effect of three different compounds was further examined on HL60 cells using a flow cytometry method. […] Washed cells were then treated with 5% Triton and stained with propidium iodide 0.5% mg in 0.1% sodium citrate pH 7.4. Analysis was performed using a Becton Dickinson Fluorescence Activated Cell Sorter (FACS).

[3] = tested on: Bod3-SPM (sphingomyelin) synthesis in HL60 cells; experiment: Sphingolipid metabolism from Bodipy-C3-ceramide: Bod3-SPM in HL60; conditions: HL60, 3 hours, 2.5 μM Bodipy-C3-ceramide; read-out: od 3-SPM (IC50 for reduction of Bod3-SPM, cell+medium)
Procedure: as §1, §2, §3

[4] = tested on: Bod3-SPM synthesis in MCF-NCi cells; experiment: Sphingolipid metabolism: Bod3-SPM in MCF-NCi; conditions: 3 hours, 2.5 μM Bodipy-C3-ceramide, read-out: od 3-SPM (IC50 for reduction of Bod3-SPM)
Procedure: as §1, §2, §3

IC50 [1]: 5 µM
IC50 [3]: 4 µM
IC50 [4]: 7 µM
Structure (SMILES): CCCCCCNc1ccc([C@@H](O)[C@@H](CO)NCCCCCC)cc1 [AD-2665, (2R,3R)-2-(N-hexylamine)-1-(4-N-hexylaminophenyl)-1,3-propanediol]
apoptotic cells ([2]; HL60, 30 min, 40 μM): 5%
apoptotic cells ([2]; HL60, 3 hours, 10 μM): about 8%
apoptotic cells ([2]; HL60, 3 hours, 20 μM): 26%
apoptotic cells ([2]; HL60, 24 hours, 10 μM): 25%
